From patent US20050074879A1, “Antisense oligonucleotide modulation of STAT3 expression” (priority 2000, published 2005)
Oligonucleotides are written 5' to 3', each unit as a sugar letter and its base; * is a phosphorothioate linkage, no mark a phosphodiester; rarer units and linkages stand in square brackets, end groups in braces. Plain capitals give the bases only. e = 2'-O-(2-methoxyethyl) (MOE); [5mC] = 5-methylcytosine; d = 2'-deoxy (DNA)

test system: Human STAT3 mRNA; experiment: Inhibition of human STAT3 mRNA levels in A549 cells, 75 nM, real-time PCR (Table 13); assay type: cell-based; conditions: 75 nM oligonucleotide with LIPOFECTIN, real-time PCR PPS 199, percent inhibition relative to untreated control cells, average of 2 experiments
Procedure: Oligonucleotide activity is assayed by quantitation of STAT3 mRNA levels by real-time PCR (RT-PCR) using the ABI PRISMS 7700 Sequence Detection System (PE-Applied Biosystems, Foster City, Calif.) according to manufacturer's instructions. This is a closed-tube, non-gel-based, fluorescence detection system which allows high-throughput quantitation of polymerase chain reaction (PCR) products in real-time. As opposed to standard PCR, in which amplification products are quantitated after the PCR is completed, products in RT-PCR are quantitated as they accumulate. This is accomplished by including in the PCR reaction an oligonucleotide probe that anneals specifically between the forward and reverse PCR primers, and contains two fluorescent dyes. A reporter dye (e.g., JOE or FAM, PE-Applied Biosystems, Foster City, Calif.) is attached to the 5′ end of the probe and a quencher dye (e.g., TAMRA, PE-Applied Biosystems, Foster City, Calif.) is attached to the 3′ end of the probe. When the probe and dyes are intact, reporter dye emission is quenched by the proximity of the 3′ quencher dye. During amplification, annealing of the probe to the target sequence creates a substrate that can be cleaved by the 5′-exonuclease activity of Taq polymerase. […] With each cycle, additional reporter dye molecules are cleaved from their respective probes, and the fluorescence intensity is monitored at regular (six-second) intervals by laser optics built into the ABI PRISM™ 7700 Sequence Detection System. In each assay, a series of parallel reactions containing serial dilutions of mRNA from untreated control samples generates a standard curve that is used to quantitate the percent inhibition after antisense oligonucleotide treatment of test samples.
RT-PCR reagents are obtained from PE-Applied Biosystems, Foster City, Calif. RT-PCR reactions are carried out by adding 25 l PCR cocktail (1× TAQMAN7 buffer A, 5.5 mM MgCl2, 300 µM each of DATP, dCTP and dGTP, 600 µM of dUTP, 100 nM each of forward primer, reverse primer, and probe, 20 U RNAse inhibitor, 1.25 units AMPLITAQ GOLD7, and 12.5 U MuLV reverse transcriptase) to 96 well plates containing 25 l poly(A) mRNA solution. The RT reaction is carried out by incubation for 30 minutes at 48° C. following a 10 minute incubation at 95° C. to activate the AMPLITAQ GOLD7, 40 cycles of a two-step PCR protocol are carried out: 95° C. for 15 seconds (denaturation) followed by 60° C. for 1.5 minutes (annealing/extension).
The compounds were analyzed for their effect on STAT3 mRNA levels in A549 cells. The human lung carcinoma cell line A549 was obtained from the American Type Culture Collection (ATCC) (Manassas, Va.). A549 cells were routinely cultured in DMEM basal media (Invitrogen Corporation, Carlsbad, Calif.) supplemented with 10% fetal calf serum (Invitrogen Corporation, Carlsbad, Calif.), 100 units/mL penicillin, and 100 ug/mL streptomycin (Invitrogen Corporation, Carlsbad, Calif.). Cells were routinely passaged by trypsinization and dilution when they reached 90% confluence.
When cells reached 65-75% confluency, they were treated with oligonucleotide. For cells grown in 96-well plates, wells were washed once with […] OPTI-MEM-1 reduced-serum medium (Invitrogen Corporation, Carlsbad, Calif.) and then treated with 130 µL of OPTI-MEM-1 containing […] LIPOFECTIN (Invitrogen Corporation, Carlsbad, Calif.) and 75 nM of the compounds in Table 13. Cells were treated and data were obtained in duplicate. Untreated cells served as controls. After 4-7 hours of treatment at 37° C., the medium was replaced with fresh medium. Cells were harvested 16-24 hours after oligonucleotide treatment. STAT3 mRNA levels in A549 cells were quantitated by real-time PCR as described by other methods herein.
Probes and primers to human STAT3 were designed to hybridize to a human STAT3 sequence, using published sequence information (incorporated herein as SEQ ID NO: 1). For STAT 3 the PCR primers were: • forward primer: […]

Going from “337281 (antisense eG*eG*eG*eT*eT*dT*dT*dA*dT*dA*dG*dT*dT*dG*dA*eA*eA*eT*e[5mC]*eA) [compound 337281]” to “337282 (antisense e[5mC]*eT*eT*eG*eA*dG*dG*dG*dT*dT*dT*dT*dA*dT*dA*eG*eT*eT*eG*eA) [compound 337282]”, the “% Inhib (inhibition of human STAT 3 mRNA levels)” value (from here on “% Inhib”) rises from 16% to 58%.

Going from “337283 (antisense eT*eG*eA*e[5mC]*eT*d[5mC]*dT*dT*dG*dA*dG*dG*dG*dT*dT*eT*eT*eA*eT*eA) [compound 337283]” to “337285 (antisense e[5mC]*eA*eT*eG*eT*d[5mC]*dT*d[5mC]*d[5mC]*dT*dT*dG*dA*d[5mC]*dT*e[5mC]*eT*eT*eG*eA) [compound 337285]”, the “% Inhib” value rises from 71% to 78%.

Compared with “337286 (antisense eA*eT*eT*e[5mC]*eA*dG*dA*dT*d[5mC]*dT*dT*dG*d[5mC]*dA*dT*eG*eT*e[5mC]*eT*e[5mC]) [compound 337286]”, “337287 (antisense eT*eG*eG*eT*eT*dG*dT*dT*dT*d[5mC]*d[5mC]*dA*dT*dT*d[5mC]*eA*eG*eA*eT*e[5mC]) [compound 337287]” is higher in “% Inhib” value: 77% for the first, 82% for the second.

First: 337288 (antisense eT*eG*eG*eT*e[5mC]*dA*d[5mC]*dT*dG*dA*d[5mC]*dT*dG*dG*dT*eT*eG*eT*eT*eT) [compound 337288]
Second: 337289 (antisense eT*e[5mC]*e[5mC]*eA*eG*d[5mC]*dT*dG*d[5mC]*dT*dG*d[5mC]*dA*dT*d[5mC]*eT*eT*e[5mC]*eT*eG) [compound 337289]
The “% Inhib” value of the first is higher: 84% for the first, 83% for the second.

Compared with “337290 (antisense eG*eA*eG*e[5mC]*eA*dT*d[5mC]*dT*dG*dT*dT*d[5mC]*d[5mC]*dA*dG*e[5mC]*eT*eG*e[5mC]*eT) [compound 337290]”, “337291 (antisense e[5mC]*eT*eT*e[5mC]*eT*d[5mC]*d[5mC]*dG*d[5mC]*dA*dT*d[5mC]*dT*dG*dG*eT*e[5mC]*e[5mC]*eA*eG) [compound 337291]” is lower in “% Inhib” value: 80% for the first, 66% for the second.

Going from “337292 (antisense eT*eT*e[5mC]*eT*eG*d[5mC]*dA*d[5mC]*dG*dT*dA*d[5mC]*dT*d[5mC]*d[5mC]*eA*eT*e[5mC]*eG*e[5mC]) [compound 337292]” to “337294 (antisense e[5mC]*eT*e[5mC]*eT*eT*d[5mC]*d[5mC]*dA*dG*dT*d[5mC]*dA*dG*d[5mC]*d[5mC]*eA*eG*e[5mC]*eT*e[5mC]) [compound 337294]”, the “% Inhib” value falls from 81% to 75%.

Compared with “337295 (antisense eT*eG*e[5mC]*e[5mC]*eG*d[5mC]*d[5mC]*dT*d[5mC]*dT*dT*d[5mC]*d[5mC]*dA*dG*eT*e[5mC]*eA*eG*e[5mC]) [compound 337295]”, “337296 (antisense e[5mC]*e[5mC]*eA*eG*eT*dT*dT*dT*d[5mC]*dT*dA*dG*d[5mC]*d[5mC]*dG*eA*eT*e[5mC]*eT*eA) [compound 337296]” is lower in “% Inhib” value: 82% for the first, 80% for the second.

Compared with “337297 (antisense eA*e[5mC]*eG*eT*eT*dA*dT*d[5mC]*d[5mC]*dA*dG*dT*dT*dT*dT*e[5mC]*eT*eA*eG*e[5mC]) [compound 337297]”, “337298 (antisense eA*eG*eT*eT*eG*dA*dG*dA*dT*dT*d[5mC]*dT*dG*d[5mC]*dT*eA*eA*eT*eG*eA) [compound 337298]” is higher in “% Inhib” value: 72% for the first, 74% for the second.

Compared with “337299 (antisense eT*e[5mC]*eT*eG*eA*dA*dG*dT*dT*dG*dA*dG*dA*dT*dT*e[5mC]*eT*eG*e[5mC]*eT) [compound 337299]”, “337300 (antisense e[5mC]*e[5mC]*eT*eT*eT*dG*dT*dA*dG*dG*dA*dA*dA*d[5mC]*dT*eT*eT*eT*eT*eG) [compound 337300]” is lower in “% Inhib” value: 80% for the first, 23% for the second.

First: 337301 (antisense eA*eG*eG*e[5mC]*eA*d[5mC]*dT*dT*dT*dT*d[5mC]*dA*dT*dT*dA*eA*eG*eT*eT*eT) [compound 337301]
Second: 337302 (antisense eT*eT*eG*eA*e[5mC]*d[5mC]*dA*dG*d[5mC]*dA*dA*d[5mC]*d[5mC]*dT*dG*eA*e[5mC]*eT*eT*eT) [compound 337302]
The “% Inhib” value of the first is higher: 73% for the first, 61% for the second.

Compared with “337304 (antisense eT*eT*eT*eT*eA*dA*dG*d[5mC]*dT*dG*dA*dT*dA*dA*dT*eT*e[5mC]*eA*eA*e[5mC]) [compound 337304]”, “337305 (antisense e[5mC]*eT*eT*eT*eA*dA*dT*dT*dT*dT*dA*dA*dG*d[5mC]*dT*eG*eA*eT*eA*eA) [compound 337305]” is higher in “% Inhib” value: 15% for the first, 25% for the second.

Compared with “337306 (antisense eG*e[5mC]*eA*e[5mC]*eA*d[5mC]*dT*dT*dT*dA*dA*dT*dT*dT*dT*eA*eA*eG*e[5mC]*eT) [compound 337306]”, “337307 (antisense eT*e[5mC]*eA*eA*eT*dG*d[5mC]*dA*d[5mC]*dA*d[5mC]*dT*dT*dT*dA*eA*eT*eT*eT*eT) [compound 337307]” is lower in “% Inhib” value: 77% for the first, 53% for the second.

Compared with “337308 (antisense e[5mC]*e[5mC]*e[5mC]*eA*eG*dA*dA*dT*dG*dT*dT*dA*dA*dA*dT*eT*eT*e[5mC]*e[5mC]*eG) [compound 337308]”, “337309 (antisense eA*eG*eA*eG*eG*d[5mC]*dT*dG*d[5mC]*d[5mC]*dG*dT*dT*dG*dT*eT*eG*eG*eA*eT) [compound 337309]” is higher in “% Inhib” value: 70% for the first, 73% for the second.

Going from “337310 (antisense eA*eA*eG*eT*eG*dT*dT*dT*dG*dA*dA*dT*dT*d[5mC]*dT*eG*e[5mC]*eA*eG*eA) [compound 337310]” to “337311 (antisense eT*e[5mC]*eT*e[5mC]*eT*dG*d[5mC]*dT*d[5mC]*d[5mC]*d[5mC]*dT*d[5mC]*dA*dG*eG*eG*eT*e[5mC]*eA) [compound 337311]”, the “% Inhib” value falls from 73% to 61%.

Going from “337312 (antisense eA*eT*e[5mC]*eA*eG*dG*dT*dG*d[5mC]*dA*dG*d[5mC]*dT*d[5mC]*d[5mC]*eT*e[5mC]*eA*eG*eT) [compound 337312]” to “337313 (antisense eA*eG*eG*eT*eG*dA*dT*d[5mC]*dA*dG*dG*dT*dG*d[5mC]*dA*eG*e[5mC]*eT*e[5mC]*e[5mC]) [compound 337313]”, the “% Inhib” value falls from 78% to 61%.

First: 337314 (antisense e[5mC]*eT*e[5mC]*eA*eA*dA*dG*dG*dT*dG*dA*dT*d[5mC]*dA*dG*eG*eT*eG*e[5mC]*eA) [compound 337314]
Second: 337315 (antisense eG*eA*eG*eG*e[5mC]*d[5mC]*dT*dT*dG*dG*dT*dG*dA*dT*dA*e[5mC]*eA*e[5mC]*e[5mC]*eT) [compound 337315]
The “% Inhib” value of the first is higher: 75% for the first, 46% for the second.

Compared with “337316 (antisense eT*e[5mC]*eA*eA*eT*d[5mC]*dT*dT*dG*dA*dG*dG*d[5mC]*d[5mC]*dT*eT*eG*eG*eT*eG) [compound 337316]”, “337317 (antisense e[5mC]*eT*eA*eG*eG*dT*d[5mC]*dA*dA*dT*d[5mC]*dT*dT*dG*dA*eG*eG*e[5mC]*e[5mC]*eT) [compound 337317]” is lower in “% Inhib” value: 59% for the first, 55% for the second.
